In article PMC6394990, “Detailed characterization of the solution kinetics and thermodynamics of biotin, biocytin and HABA binding to avidin and streptavidin” (PLoS ONE, 2019):
Where “and” joins values, the source holds several entries; their conditions need not be identical. Equal entries are not always repeated. Where two headings read alike, the source gives them in different places. Marks after values point to notes of the source that are not given here.

Tests used:
[1] = biological target: T1, avidin (AV) (Gallus gallus, UniProt P02701); settings: cited from earlier work; for ΔG° ^ǂ, Backward / ΔS° ^ǂ, Backward: calculated from the plotted data; for Ea^Backward: ref 18
T1 construct: purchased Calbiochem (La Jolla, CA)
T1 sequence (P02701 25-152): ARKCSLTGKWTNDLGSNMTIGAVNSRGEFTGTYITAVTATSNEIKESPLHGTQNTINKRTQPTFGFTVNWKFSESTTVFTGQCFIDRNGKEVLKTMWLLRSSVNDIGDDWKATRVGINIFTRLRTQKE

[2] = biological target: T2, streptavidin (SAV) (Streptomyces avidinii, UniProt P22629); experiment: Literature kinetics, affinity and dissociation (backward) activation parameters; type: binding; settings: SAV-B7, average of the reported values
T2 construct: purchased Sigma Aldrich (St. Louis, MO)
T2 sequence (P22629 25-183): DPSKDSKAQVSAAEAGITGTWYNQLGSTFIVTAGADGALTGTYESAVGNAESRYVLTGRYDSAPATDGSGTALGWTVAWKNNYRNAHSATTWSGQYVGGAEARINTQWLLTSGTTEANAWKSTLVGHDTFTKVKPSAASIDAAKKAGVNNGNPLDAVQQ

[3] = biological target: T2, streptavidin (SAV); settings: cited from earlier work
[4] = biological target: T1, avidin (AV); experiment: Relaxation kinetics of unlabeled biotin reacting with the AV-HABA complex; type: binding; settings: pH 8 and 23°C; read-out: konB, association rate of unlabeled B7 to the final site (AV-HABA3)
Experimental: All of the following protein concentrations are presented on a binding site basis, thus in the case of the HABA association reactions for AV were measured at 23.0 ± 0.1°C with a concentration of 87 μM HABA and 7.7 μM AV. The AV-HABA relaxation reactions were conducted with a preformed AV-HABA complex made up of 200 μM HABA and 10 μM AV, flowed against varying amounts of B7 from 100 μM up to 4000 μM for a [HABA]/[B7] ratio that ranged from 0.05 to 2.
The relaxation experiments were prepared at concentrations in which HABA occupies all sites (AV-HABA4). Biotin replaces HABA relative to the koff of the dye as shown for the first step (Eq 1) and then repeated for all sites. Having greater affinity, B7 occupies all sites at the end of the reaction and the measured kon is related to the affinities of the ligand bound protein.
The reaction is monitored by the HABA absorbance changes at 500 nm as it is replaced by unlabeled B7; yielding the relaxation constant of the reaction (Relaxation, Eq 2) which contains information of the B7 association rate constant of the open binding site, k1AV−HABA3 to form a full saturated complex (AV-HABA4) and the dissociation rate of that full complex, k−1AV−HABA4 , to yield a complex with three HABA molecules (AV-HABA3). In the subsequent steps, B7 replaces HABA as the ligand but the release of HABA creates an unoccupied site that remains in the same state. In summary, the experiment was designed to acquire the pseudo-first order association rate constant of B7 binding ( konB ) to the solely free binding site in a complex occupied by three HABA molecules (AV-HABA3).
The reciprocal of the relaxation constant (1/Relaxation) is plotted vs. the [HABA]/[B] concentration ratio (Eq 3) allowing to calculate: k−1AV−HABA4 and k1AV−HABA3 by solving for the intercept ( 1/k−1AV−HABA4 ) and the respective slope: m=k1AV−HABA3/(k−1AV−HABA4∙konB) . The exponential decays were analyzed by the method of Foss. There was no departure from simple first order decay in the relaxation, justifying the use of the following model and equations.

[5] = biological target: T1, avidin (AV); settings: AV-B7, cited from earlier work
[6] = biological target: T2, streptavidin (SAV); experiment: Literature calorimetry reaction thermodynamics; type: binding; settings: SAV-B7, average of the reported values
[7] = biological target: T1, avidin (AV); experiment: Literature calorimetry reaction thermodynamics; type: binding; settings: AV-B7, average of the reported values
[8] = biological target: T2, streptavidin (SAV); experiment: Absorbance and fluorescence emission spectra, SAV complex; type: physicochemical
Experimental: The lifetimes (τ), steady state anisotropies (rss), time-resolved anisotropies (rt) and quantum yields (QY) of the complexes (at 20 ± 0.1°C and pH 8) were collected with a dye-labeled B7 probe concentration of 20–40 nM and 1040–2080 nM of either protein (AV or SAV) to ensure that only one binding site in the tetramer was filled with a ligand (AB1 filling model).
The QY values were obtained by using a reference fluorophore of known quantum yield and were calculated according to Parker and Rees, where the reference dye was fluorescein in 0.1N sodium hydroxide solution [46]. The emission fluorescence scans were collected from 480 nm to 700 nm with the excitation light set at 460 nm provided by the xenon arc lamp described above. These measurements were made on the AB1 complexes at high protein concentration.
Supplementary file pone.0204194.s001.docx: S1 Fig Absorbance spectra of dye-labeled B7 probes and respective complexes with AV and SAV. […] The spectra are normalized to the calculated molar absorptivies. The distortion of the SAV-BFl absorbance spectrum (B panel) is caused by the presence of Fl^2- and Fl^1-. The labeled probes and protein concentrations were 1 μM and 10 μM, respectively. (DOCX) Click here for additional data file.
Supplementary file pone.0204194.s002.docx: S2 Fig Fluorescence emission spectra of dye-labeled B7 and respective complexes with AV and SAV. […] The probe and protein concentrations were 20 nM and 1040 nM (AB1 filling model), respectively. (DOCX) Click here for additional data file.

[9] = SAV complex, mono-ionic fluorescein species

O=C(O)CCCC[C@@H]1SC[C@@H]2NC(=O)N[C@@H]21 [B7, d-biotin]
ΔG° ^ǂ, Backward ([1]; AV-B7): 24.7 ± 2.0 [18]^e kcal/mol and 24.7 kcal/mol
ΔS° ^ǂ, Backward ([1]; AV-B7): 43.0 ± 2.0 [18]^e cal/mol°K and 43 cal/mol°K
ΔG° ^ǂ, Backward ([1]; AV-B7, listed as B): 24.7 ± 1.0 6,a kcal/mol
ΔS° ^ǂ, Backward ([1]; AV-B7, listed as B): 43.0 ± 2.0 6,a cal/mol°K
Ea^Backward ([1]; AV-B7): 37.6 ± 2.0 [18] kcal/mol and 37.6 kcal/mol
Ea^Backward ([1]; AV-B7, listed as B): 37.6 ± 1.0 6,a kcal/mol
koff replacement ([1]; AV-B7, ref 35): 9e-08 s⁻¹
kon ([1]; Surface Plasmon Resonance, 20°C, pH 7.4 in HEPES buffer): 2.0 ± 0.3 × 10^6 M^-1s^-1
half-life of the AV-B7 complex [1]: 90 days
kon ([1]; pH 5 and 25°C, 14C-biotin quenching experiment): 7e+07 M⁻¹ s⁻¹
Ea^Backward, averaged value [2]: 29.4 ± 2.6 kcal/mol and 29.4 kcal/mol
ΔG° ^ǂ, Backward, averaged value [2]: 23.6 ± 1.5 kcal/mol and 23.6 kcal/mol
ΔS° ^ǂ, Backward, averaged value [2]: 24.8 ± 4.5 cal/mol°K and 24.8 cal/mol°K
ΔG° ^ǂ, Backward, averaged value ([2]; listed as B): 23.6 ± 1.0 kcal/mol
ΔS° ^ǂ, Backward, averaged value ([2]; listed as B): 24.8 ± 2.5 cal/mol°K
ΔG° ^ǂ, Backward ([3]; SAV-B7, calculated at 25°C): 24.8 ± 0.3 kcal/mol and 24.8 ± 0.3 80,f kcal/mol
ΔG° ^ǂ, Backward ([3]; SAV-B7, calculated at 25°C, listed as B): 24.8 ± 0.3 53,b kcal/mol
ΔS° ^ǂ, Backward ([3]; SAV-B7, calculated from the plotted data): 29.9 ± 2.0 cal/mol°K and 29.9 ± 2.0 18 e cal/mol°K
ΔS° ^ǂ, Backward ([3]; SAV-B7, calculated from the plotted data, listed as B): 29.9 ± 2.0 6,a cal/mol°K
ΔS° ^ǂ, Backward ([3]; SAV-B7, ref 39, 80, 82): 18.8 ± 0.3 cal/mol°K and 18.8 ± 0.3 36,80,81 cal/mol°K
ΔS° ^ǂ, Backward ([3]; SAV-B7, ref 39, 80, 82, listed as B): 18.8 ± 0.3 20, 53, 55 cal/mol°K
Ea^Backward ([3]; SAV-B7, ref 39, 80): 30.4 ± 0.2 kcal/mol and 30.4 ± 0.2 36,80 kcal/mol
Ea^Backward ([3]; SAV-B7, ref 39, 80, listed as B): 30.4 ± 0.2 20, 53 kcal/mol
ΔG° ^ǂ, Backward ([3]; SAV-B7, ref 39, 82): 24.6 ± 0.3 kcal/mol and 24.6 ± 0.3 36,81 kcal/mol
ΔG° ^ǂ, Backward ([3]; SAV-B7, ref 39, 82, listed as B): 24.6 ± 0.3 20, 55 kcal/mol
ΔG° ^ǂ, Backward ([3]; SAV-B7, ref 47): 21.4 ± 2.0 kcal/mol and 21.4 ± 2.0 44 kcal/mol
ΔG° ^ǂ, Backward ([3]; SAV-B7, ref 47, listed as B): 21.4 ± 1.0 6 kcal/mol
koff replacement ([3]; SAV-B7, ref 68): 2.4e-06 s⁻¹
Ea^Backward ([3]; SAV-B7, ref 81): 32.0 kcal/mol and 32 kcal/mol
ΔS° ^ǂ, Backward ([3]; SAV-B7, ref 81): 25.8 cal/mol°K and 25.8 82 cal/mol°K
Ea^Backward ([3]; SAV-B7, ref 81, listed as B): 32.0 56 kcal/mol
ΔS° ^ǂ, Backward ([3]; SAV-B7, ref 81, listed as B): 25.8 56 cal/mol°K
Ea^Backward ([3]; SAV-B7, ref 82): 25.8 ± 1.2 kcal/mol and 25.8 ± 1.2 81 kcal/mol
Ea^Backward ([3]; SAV-B7, ref 82, listed as B): 25.8 ± 1.2 55 kcal/mol
kon ([3]; SPR, immobilized B7, 4°C): 5.1e+06 M⁻¹ s⁻¹
kon ([3]; stopped-flow, tryptophan fluorescence quenching, 25°C and pH 7): 7.5 ± 0.6 × 10^7 M^-1s^-1
kon [4]: 5.3e+06 ± 9e+11 M⁻¹ s⁻¹
ΔH°rxn ([5]; ref 39): -26.7 kcal/mol and -26.7 36 kcal/mol
ΔH°rxn ([5]; ref 39, listed as B): -26.7 20 kcal/mol
ΔG°rxn ([5]; ref 76): -20.5 kcal/mol and -20.5 77 kcal/mol
ΔH°rxn ([5]; ref 76): -20.3 ± 0.3 kcal/mol and -20.3 ± 0.377 kcal/mol
ΔG°rxn ([5]; ref 76, listed as B): -20.5 50 kcal/mol
ΔH°rxn ([5]; ref 76, listed as B): -20.3 ± 0.3 50 kcal/mol
ΔH°rxn ([5]; ref 77): -22.5 ± 0.1 kcal/mol and -22.5 ± 0.1 78 kcal/mol
ΔH°rxn ([5]; ref 77, listed as B): -22.5 ± 0.1 52 kcal/mol
ΔG°rxn ([5]; ref 78): -20.8 kcal/mol and -20.8 79 kcal/mol
ΔH°rxn ([5]; ref 78): -23.4 ± 0.3 kcal/mol and -23.4 ± 0.3 79 kcal/mol
ΔS°rxn ([5]; ref 78): -8.9 [78] cal/mol°K and -8.9 79 cal/mol°K
ΔG°rxn ([5]; ref 78, listed as B): -20.8 51 kcal/mol
ΔH°rxn ([5]; ref 78, listed as B): -23.4 ± 0.3 51 kcal/mol
ΔS°rxn ([5]; ref 78, listed as B): -8.9 51 cal/mol°K
ΔG°rxn, averaged value [6]: -18.2 ± 0.2 kcal/mol
ΔH°rxn, averaged value [6]: -24.8 ± 2.0 kcal/mol
ΔG°rxn, averaged value ([6]; listed as B): -18.2 ± 0.1 kcal/mol
ΔG°rxn, averaged value [7]: -20.7 ± 0.3 kcal/mol
ΔH°rxn, averaged value [7]: -23.2 ± 1.7^d kcal/mol and -23.2 ± 1.7 d kcal/mol
ΔG°rxn, averaged value ([7]; listed as B): -20.7 ± 1.0 kcal/mol
ΔH°rxn, averaged value ([7]; listed as B): -23.2 ± 1.0 kcal/mol

O=C(CCCC[C@@H]1SC[C@@H]2NC(=O)N[C@@H]21)NCCNC(=O)c1ccc(-c2c3ccc(=O)cc-3oc3cc(O)ccc23)c(C(=O)O)c1 [BFl, Biotin-4-fluorescein]
Maximum Absorbance ([8]; SAV complex, di-ionic fluorescein species): 494 nm
Maximum Absorbance [8, 9]: 472 nm
Maximum Emission [8, 9]: 515 nm
Emission (nm) ([8]; complex with SAV): 524 nm
